Experimental data: PubChem BioAssay (NCI)
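Briefly, cells in 96-well plates were exposed to five compound concentrations for 48 h, and endpoints were estimated by linear interpolation. GI50 marks 50% less growth. TGI marks complete inhibition of growth.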

How the values were obtained:
Experiment in all cases: DTP human tumour cell line panel, 48 h
[1] = test system: SK-MEL-28 melanoma
[2] = test system: LOX IMVI melanoma
[3] = test system: UACC-257 melanoma
[4] = test system: SF-539 CNS
[5] = test system: 786-0 renal
[6] = test system: A549 NSCLC
[7] = test system: HT29 colon
[8] = test system: SF-268 CNS
[9] = test system: OVCAR-3 ovarian
[10] = test system: CCRF-CEM leukemia
[11] = test system: OVCAR-8 ovarian
[12] = test system: SNB-75 CNS
[13] = test system: MALME-3M melanoma
[14] = test system: NCI-H522 lung
[15] = test system: A498 renal
[16] = test system: SK-OV-3 ovarian
[17] = test system: SK-MEL-5 melanoma
[18] = test system: UACC-62 melanoma
[19] = test system: RPMI-8226 leukemia
[20] = test system: OVCAR-5 ovarian
[21] = test system: U251 CNS
[22] = test system: MOLT-4 leukemia
[23] = test system: SR leukemia
[24] = test system: NCI-H23 lung
[25] = test system: MDA-MB-468 breast
[26] = test system: KM12 colon
[27] = test system: EKVX NSCLC
[28] = test system: CAKI-1 renal
[29] = test system: DU-145 prostate
[30] = test system: SNB-19 CNS
[31] = test system: NCI-H460 lung
[32] = test system: HCT-116 colon
[33] = test system: IGROV1 ovarian
[34] = test system: BT-549 breast
[35] = test system: MDA-MB-435
[36] = test system: MCF7 breast
[37] = test system: K-562 leukemia
[38] = test system: HS 578T breast
[39] = test system: MDA-MB-231 breast
[40] = test system: HL-60(TB) leukemia
[41] = test system: M14 melanoma
[42] = test system: SW-620 colon
[43] = test system: HCC-2998 colon
[44] = test system: ACHN renal
[45] = test system: OVCAR-4 ovarian
[46] = test system: SK-MEL-2 melanoma
[47] = test system: SF-295 CNS
[48] = test system: NCI-H226 lung
[49] = test system: NCI/ADR-RES ovarian
[50] = test system: HOP-92 NSCLC
[51] = test system: SN12C renal

CCCn1cc(-c2nc(Nc3ccc(C(=O)NCCCCNc4cccc5c4C(=O)N(C4CCC(=O)NC4=O)C5=O)cc3)nc3[nH]ccc23)cn1 (stereo not given)
GI50 [1]: 123 nM | TGI [1]: > 100000 nM | GI50 [2]: > 100000 nM | TGI [2]: > 100000 nM | GI50 [3]: > 100000 nM | TGI [3]: > 100000 nM | GI50 [4]: 67.6 nM | TGI [4]: > 100000 nM | GI50 [5]: 136 nM | TGI [5]: > 100000 nM | GI50 [6]: 119 nM | TGI [6]: > 100000 nM | GI50 [7]: 166 nM | TGI [7]: > 100000 nM | GI50 [8]: 25.7 nM | TGI [8]: > 100000 nM | GI50 [9]: 424 nM | TGI [9]: > 100000 nM | GI50 [10]: < 10 nM | TGI [10]: < 10 nM | GI50 [11]: < 10 nM | TGI [11]: > 100000 nM | GI50 [12]: < 10 nM | TGI [12]: 2060 nM | GI50 [13]: < 10 nM | TGI [13]: < 10 nM | GI50 [14]: > 100000 nM | TGI [14]: > 100000 nM | GI50 [15]: 157 nM | TGI [15]: > 100000 nM | GI50 [16]: 425 nM | TGI [16]: > 100000 nM | GI50 [17]: 30 nM | TGI [17]: 188 nM | GI50 [18]: > 100000 nM | TGI [18]: > 100000 nM | GI50 [19]: 157 nM | TGI [19]: > 100000 nM | GI50 [20]: 243 nM | TGI [20]: > 100000 nM | GI50 [21]: 589 nM | TGI [21]: > 100000 nM | GI50 [22]: < 10 nM | GI50 [23]: 319 nM | TGI [23]: > 100000 nM | GI50 [24]: 18600 nM | TGI [24]: > 100000 nM | GI50 [25]: < 10 nM | TGI [25]: < 10 nM | GI50 [26]: 37.4 nM | TGI [26]: > 100000 nM | TGI [27]: > 100000 nM | GI50 [28]: 190 nM | TGI [28]: > 100000 nM | GI50 [29]: > 100000 nM | TGI [29]: > 100000 nM | GI50 [30]: < 12.4 nM | TGI [30]: > 100000 nM | GI50 [31]: > 100000 nM | TGI [31]: > 100000 nM | GI50 [32]: 27400 nM | TGI [32]: > 100000 nM | GI50 [33]: 11.7 nM | TGI [33]: > 100000 nM | GI50 [34]: < 10 nM | TGI [34]: < 10 nM | GI50 [35]: 68.6 nM | TGI [35]: > 100000 nM | GI50 [36]: 33.9 nM | TGI [36]: > 100000 nM | GI50 [37]: 36.8 nM | TGI [37]: > 100000 nM | GI50 [38]: < 10 nM | TGI [38]: > 100000 nM | GI50 [39]: < 10 nM | TGI [39]: < 10 nM | GI50 [40]: < 10 nM | TGI [40]: 516 nM | GI50 [41]: 81.7 nM | TGI [41]: > 100000 nM | GI50 [42]: < 10 nM | TGI [42]: > 100000 nM | GI50 [43]: < 10 nM | TGI [43]: > 100000 nM | GI50 [44]: > 100000 nM | TGI [44]: > 100000 nM | GI50 [45]: 35.4 nM | TGI [45]: > 100000 nM | GI50 [46]: 53.6 nM | TGI [46]: > 100000 nM | GI50 [47]: 209 nM | TGI [47]: > 100000 nM | GI50 [48]: 31.9 nM | TGI [48]: > 100000 nM | GI50 [49]: > 100000 nM | TGI [49]: > 100000 nM | GI50 [50]: < 10 nM | TGI [50]: < 10 nM | GI50 [51]: 16.6 nM | TGI [51]: > 100000 nM
